Molecular target: CREBBP (Homo sapiens (Human), UniProt Q92793)
Assay: In vitro enzyme inhibition assay - CREBBP inhibition (AlphaScreen, biotinylated H4-tetraacetyl peptide)
Assay type: binding
Conditions: Table 28; AlphaScreen, H4-tetraacetyl peptide
Method in brief: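 His-tagged CREBBP expressed in E. coli (50 nM final) incubated with biotinylated H4K5/8/12/16(Ac) peptide (20 nM final) in HEPES pH 7.3 buffer, 0.4% DMSO, 20 min at room temperature.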

CREBBP, sequence (Q92793 1081-1197): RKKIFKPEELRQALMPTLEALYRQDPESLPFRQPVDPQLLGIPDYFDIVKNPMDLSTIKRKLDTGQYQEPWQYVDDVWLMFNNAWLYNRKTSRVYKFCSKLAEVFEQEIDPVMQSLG

| IC50 | Compound |
| --- | --- |
| < 500 nM | CC[C@@H](C)S(=O)(=O)Nc1cc(-c2ccc(=O)n(C)c2)nc(Oc2c(C)cccc2Cl)n1 [Example 204, Butane-(2R)-sulfonic acid [2-(2-chloro-6-methyl-phenoxy)-6-(1-methyl-6-oxo-1,6-dihydro-pyridin-3-yl)-pyrimidin-4-yl]-amide] |
| < 500 nM | CCCS(=O)(=O)Nc1cc(-c2cc(C)c(=O)n(C)c2)nc(Oc2c(Cl)cccc2CC)n1 [Example 42, Propane-1-sulfonic acid [2-(2-chloro-6-ethyl-phenoxy)-6-(1,5-dimethyl-6-oxo-1,6-dihydro-pyridin-3-yl)-pyrimidin-4-yl]-amide] |
| < 500 nM | Cc1cccc(F)c1Oc1nc(NCC2CCCc3ccccc32)cc(-c2ccc(=O)n(C)c2)n1 (centres unmarked) [Example 286, 5-(2-(2-fluoro-6-methylphenoxy)-6-(((1,2,3,4-tetrahydronaphthalen-1-yl)methyl)amino)pyrimidin-4-yl)-1-methylpyridin-2(1H)-one] |
| < 500 nM | CCCC(C)S(=O)(=O)Nc1cc(-c2ccc(=O)n(C)c2)nc(Oc2c(C)cccc2F)n1 (centres unmarked) [Example 241, Pentane-2-sulfonic acid [2-(2-fluoro-6-methyl-phenoxy)-6-(1-methyl-6-oxo-1,6-dihydro-pyridin-3-yl)-pyrimidin-4-yl]-amide] |
| < 500 nM | CC(C)CCS(=O)(=O)Nc1cc(-c2ccc(=O)n(C)c2)nc(Oc2c(F)cccc2Cl)n1 [Example 251, 3-Mehtyl-butane-1-sulfonic acid [2-(2-chloro-6-fluoro-phenoxy)-6-(1-methyl-6-oxo-1,6-dihydro-pyridin-3-yl)-pyrimidin-4-yl]-amide] |
| < 500 nM | Cc1ccc(C)c(CNc2cc(-c3ccc(=O)n(C)c3)nc(Oc3c(C)cccc3F)n2)c1 [Example 301, 5-[6-(2,5-Dimethyl-benzylamino)-2-(2-fluoro-6-methyl-phenoxy)-pyrimidin-4-yl]-1-methyl-1H-pyridin-2-one] |
| < 500 nM | Cc1ccc(C)c(Oc2nc(NS(=O)(=O)C(C)C)cc(-c3cc(C)c(=O)n(C)c3)n2)c1 [Example 2, Propane-2-sulfonic acid [6-(1,5-dimethyl-6-oxo-1,6-dihydro-pyridin-3-yl)-2-(2,5-dimethyl-phenoxy)-pyrimidin-4-yl]-amide] |
| 500 to 5000 nM | Cc1cc(-c2cc(NS(=O)(=O)C(C)C)nc(Oc3ccc(F)cc3F)n2)cn(CC(F)(F)F)c1=O [Example 52, Propane-2-sulfonic acid {2-(2,4-difluoro-phenoxy)-6-[5-methyl-6-oxo-1-(2,2,2-trifluoro-ethyl)-1,6-dihydro-pyridin-3-yl]-pyrimidin-4-yl}-amide] |
| < 500 nM | CCC[C@H](C)S(=O)(=O)Nc1cc(-c2ccc(=O)n(C)c2)nc(Oc2c(C)cccc2F)n1 [Example 216, (2S)-Pentane-2-sulfonic acid [2-(2-fluoro-6-methyl-phenoxy)-6-(1-methyl-6-oxo-1,6-dihydro-pyridin-3-yl)-pyrimidin-4-yl]-amide] |
| < 500 nM | CCCS(=O)(=O)Nc1cc(-c2ccc(=O)n(C)c2)nc(Oc2c(F)cccc2F)n1 [Example 341, N-(2-(2,6-difluorophenoxy)-6-(1-methyl-6-oxo-1,6-dihydropyridin-3-yl)pyrimidin-4-yl)propane-1-sulfonamide] |
| < 500 nM | Cc1cc(-c2cc(NS(=O)(=O)C(C)C)nc(Oc3ccc(F)cc3F)n2)cn(C)c1=O [Example 62, N-(2-(2,4-difluorophenoxy)-6-(1,5-dimethyl-6-oxo-1,6-dihydropyridin-3-yl)pyrimidin-4-yl)propane-2-sulfonamide] |
| < 500 nM | CCCCS(=O)(=O)Nc1cc(-c2cc(C)c(=O)n(C)c2)nc(Oc2c(F)cccc2Cl)n1 [Example 138, Butane-1-sulfonic acid [2-(2-chloro-6-fluoro-phenoxy)-6-(1,5-dimethyl-6-oxo-1,6-dihydro-pyridin-3-yl)-pyrimidin-4-yl]-amide] |
| < 500 nM | CCCS(=O)(=O)Nc1nc(Oc2c(C)cccc2C)nc(-c2cc(C)c(=O)n(C)c2)c1C [Example 164, Propane-1-sulfonic acid [6-(1,5-dimethyl-6-oxo-1,6-dihydro-pyridin-3-yl)-2-(2,6-dimethyl-phenoxy)-5-methyl-pyrimidin-4-yl]-amide] |
| < 500 nM | CCCS(=O)(=O)Nc1cc(-c2ccc(=O)n(C)c2)nc(Oc2c(F)cccc2OC)n1 [Example 235, Propane-1-sulfonic acid [2-(2-fluoro-6-methoxy-phenoxy)-6-(1-methyl-6-oxo-1,6-dihydro-pyridin-3-yl)-pyrimidin-4-yl]-amide] |
| < 500 nM | Cc1cccc(F)c1Oc1nc(N[C@@H](C)c2ccccc2)cc(-c2ccc(=O)n(C)c2)n1 [Example 310, (S)-5-[2-(2-Fluoro-6-methyl-phenoxy)-6-(1-phenyl-ethylamino)-pyrimidin-4-yl]-1-methyl-1H-pyridin-2-one] |
| < 500 nM | Cc1cccc(C)c1Oc1nc(NS(=O)(=O)C(C)C)nc(-c2cc(C)c(=O)n(C)c2)n1 [Example 155, Propane-2-sulfonic acid [4-(1,5-dimethyl-6-oxo-1,6-dihydro-pyridin-3-yl)-6-(2,6-dimethyl-phenoxy)-[1,3,5]triazin-2-yl]-amide] |

| IC50 | Compound |
| --- | --- |
| < 500 nM | Cc1cccc(Cl)c1Oc1nc(NC2CCCC2)cc(-c2ccc(=O)n(C)c2)n1 [Example 284, 5-(2-(2-chloro-6-methylphenoxy)-6-(cyclopentylamino)pyrimidin-4-yl)-1-methylpyridin-2(1H)-one] |
| < 500 nM | CC[C@H](C)S(=O)(=O)Nc1cc(-c2cc(C)c(=O)n(C)c2)nc(Oc2c(C)cccc2Cl)n1 [Example 222, (S)-N-(2-(2-chloro-6-methylphenoxy)-6-(1,5-dimethyl-6-oxo-1,6-dihydropyridin-3-yl)pyrimidin-4-yl)butane-2-sulfonamide] |
| < 500 nM | CCCCS(=O)(=O)Nc1cc(-c2ccc(=O)n(C)c2)nc(Oc2c(C)cccc2Cl)n1 [Example 102, Butane-1-sulfonic acid [2-(2-chloro-6-methyl-phenoxy)-6-(1-methyl-6-oxo-1,6-dihydro-pyridin-3-yl)-pyrimidin-4-yl]-amide] |
| < 500 nM | CCC(F)S(=O)(=O)Nc1cc(-c2cc(C)c(=O)n(C)c2)nc(Oc2c(C)cccc2F)n1 (centres unmarked) [Example 169, 1-Fluoro-propane-1-sulfonic acid [6-(1,5-dimethyl-6-oxo-1,6-dihydro-pyridin-3-yl)-2-(2-fluoro-6-methyl-phenoxy)-pyrimidin-4-yl]-amide] |
| < 500 nM | CCCS(=O)(=O)Nc1cc(-c2ccc(=O)n(C)c2)nc(Oc2c(C)cc(F)cc2F)n1 [Example 344, N-(2-(2,4-difluoro-6-methylphenoxy)-6-(1-methyl-6-oxo-1,6-dihydropyridin-3-yl)pyrimidin-4-yl)propane-1-sulfonamide] |
| < 500 nM | CCCS(=O)(=O)Nc1cc(Oc2c(C)cccc2C#N)nc(-c2cc(C)c(=O)n(C)c2)n1 [Example 129, Propane-1-sulfonic acid [6-(2-cyano-6-methyl-phenoxy)-2-(1,5-dimethyl-6-oxo-1,6-dihydro-pyridin-3-yl)-pyrimidin-4-yl]-amide] |
| < 500 nM | CCCC(C)S(=O)(=O)Nc1cc(-c2ccc(=O)n(C)c2)nc(Oc2c(C)cccc2Cl)n1 (centres unmarked) [Example 243, Pentane-2-sulfonic acid [2-(2-chloro-6-methyl-pphenoxy)-6-(1-methyl-6-oxo-1,6-dihydro-pyridin-3-yl)-pyrimidin-4-yl]-amide] |
| < 500 nM | Cc1cccc(Cl)c1Oc1nc(-c2cc(C)c(=O)n(C)c2)cc(S(=O)(=O)C(C)C)n1 [Example 135, 5-[2-(2-Chloro-6-methyl-phenoxy)-6-(propane-2-sulfonyl)-pyrimidin-4-yl]-1,3-dimethyl-1H-pyridin-2-one] |
| < 500 nM | Cc1cccc(F)c1Oc1nc(-c2ccc(=O)n(C)c2)cc(N(C)Cc2ccccc2)n1 [Example 293, 5-[6-(Benzyl-methyl-amino)-2-(2-fluoro-6-methyl-phenoxy)-pyrimidin-4-yl]-1-methyl-1H-pyridin-2-one] |
| 500 to 5000 nM | Cc1cc(-c2cc(NC(=O)CC(C)C)nc(Oc3ccc(F)cc3F)n2)cn(C)c1=O [Example 77, N-(2-(2,4-difluorophenoxy)-6-(1,5-dimethyl-6-oxo-1,6-dihydropyridin-3-yl)pyrimidin-4-yl)-3-methylbutanamide] |
| < 500 nM | CCC[C@@H](C)Nc1cc(-c2ccc(=O)n(C)c2)nc(Oc2c(C)cccc2C#N)n1 [Example 317, (R)-3-Methyl-2-[4-(1-methyl-butylamino)-6-(1-methyl-6-oxo-1,6-dihydro-pyridin-3-yl)-pyrimidin-2-yloxy]-benzonitrile] |
| < 500 nM | CCCCS(=O)(=O)Nc1nc(Oc2c(F)cccc2F)nc(-c2cc(C)c(=O)n(C)c2)n1 [Example 189, Butane-1-sulfonic acid [4-(2,6-difluoro-phenoxy)-6-(1,5-dimethyl-6-oxo-1,6-dihydro-pyridin-3-yl)-[1,3,5]triazin-2-yl]-amide] |
| < 500 nM | CCC(C)S(=O)(=O)Nc1cc(-c2ccc(=O)n(C)c2)nc(Oc2c(C)cc(F)cc2F)n1 (centres unmarked) [Example 345, N-(2-(2,4-difluoro-6-methylphenoxy)-6-(1-methyl-6-oxo-1,6-dihydropyridin-3-yl)pyrimidin-4-yl)butane-2-sulfonamide] |
| < 500 nM | CCCCS(=O)(=O)Nc1cc(-c2cc(C)c(=O)n(C)c2)nc(Oc2cc(C#N)ccc2OC)n1 [Example 10, Butane-1-sulfonic acid [2-(5-cyano-2-methoxy-phenoxy)-6-(1,5-dimethyl-6-oxo-1,6-dihydro-pyridin-3-yl)-pyrimidin-4-yl]-amide] |
| < 500 nM | CCC[C@H](C)Nc1cc(-c2ccc(=O)n(C)c2)nc(Oc2c(C)cccc2F)n1 [Example 308] |
| < 500 nM | Cc1cc(-c2cc(NS(=O)(=O)C(C)C)nc(Oc3cccc4occc34)n2)cn(C)c1=O [Example 59, N-(2-(benzofuran-4-yloxy)-6-(1,5-dimethyl-6-oxo-1,6-dihydropyridin-3-yl)pyrimidin-4-yl)propane-2-sulfonamide] |

Source: US10202360B2 (CELGENE QUANTICEL RESEARCH, INC., priority 2016, dated 2019)
